# Assay results published in ChEMBL document CHEMBL1151496, “Nonpeptide GPIIB/IIIA inhibitors. 16. Thieno[2,3-b]thiophene -sulfonamides are potent inhibitors of platelet aggregation” (Bioorg Med Chem Lett, 1997).
# Key:
# [1] = species on record: Homo sapiens; assay: The compound was tested for the inhibition of platelet aggregation; assay type: functional
# [2] = species on record: Homo sapiens; assay: Measured by competition with fluorescent ligand L-762,745 for binding to resting human gel filtered platelets using flow cytometry; assay type: functional
# [3] = species on record: Homo sapiens; assay: Tested for the inhibition of [125 I] -L 692,884 binding to purified GPIIb/IIIa coated onto yttrium silicate Scintillation proximity assay fluomicrospheres
# [4] = tested on: Canis familiaris; assay: Tested ex vivo inhibition of platelet aggregation after oral dose of 200 ug/kg through out 24 hr in dog; assay type: functional; details: Canis lupus familiaris
# [5] = tested on: Canis familiaris; assay: Tested ex vivo inhibition of platelet aggregation after oral dose of 200 ug/kg through out 8 hr in dog; assay type: functional; details: Canis lupus familiaris
Compound,IC50 [1] [nM],Kd [2] [nM],ED50 [3] [nM],inhibition in vivo at 0.2 mg/kg [4] [%],inhibition in vivo at 0.2 mg/kg [5] [%]
CCCCS(=O)(=O)N[C@@H](CNC(=O)c1cc2sc(CCC3CCNCC3)cc2s1)C(=O)O,10,3,0.21,–,–
O=C(NC[C@H](NS(=O)(=O)c1ccccc1)C(=O)O)c1cc2sc(CCC3CCNCC3)cc2s1,8,0.15,0.08,–,–
O=C(O)CCNC(=O)c1cc2sc(CCC3CCNCC3)cc2s1,500,~600,–,–,–
O=C(NC[C@H](NS(=O)(=O)c1cccnc1)C(=O)O)c1cc2cc(CCCC3CCNCC3)sc2s1,21,–,–,–,–
O=C(NC[C@H](NS(=O)(=O)c1ccc(Cl)cc1)C(=O)O)c1cc2cc(CCC3CCNCC3)sc2s1,11,0.026,0.09,–,–
O=C(NC[C@H](NS(=O)(=O)c1cccs1)C(=O)O)c1cc2sc(CCC3CCNCC3)cc2s1,13,0.092,0.04,–,–
O=C(NC[C@H](NS(=O)(=O)c1cccnc1)C(=O)O)c1cc2cc(CCC3CCNCC3)sc2s1,8,–,–,–,–
O=C(NC[C@H](NS(=O)(=O)c1ccccc1)C(=O)O)c1cc2cc(CCC3CCNCC3)sc2s1,8,0.023,0.03,50,> 80
O=C(NC[C@H](NS(=O)(=O)c1cccs1)C(=O)O)c1cc2cc(CCC3CCNCC3)sc2s1,9,0.15,0.04,–,–
O=C(O)CCNC(=O)c1cc2cc(CCC3CCNCC3)sc2s1,410,–,48,–,–
O=C(NC[C@H](NS(=O)(=O)c1cccnc1)C(=O)O)c1cc2cc(CC3CCNCC3)sc2s1,23,–,–,–,–
O=C(NCc1ccccc1)N[C@@H](CNC(=O)c1cc2cc(CCC3CCNCC3)sc2s1)C(=O)O,76,94,1.9,–,–
CCCCS(=O)(=O)N[C@@H](CNC(=O)c1cc2cc(CCC3CCNCC3)sc2s1)C(=O)O,32,5.6,0.12,–,–
O=C(NCc1ccccc1)N[C@@H](CNC(=O)c1cc2sc(CCC3CCNCC3)cc2s1)C(=O)O,36,33,2.6,–,–
